Assays:
[1] = system: rat serum proteins; settings: cited from earlier work
[2] = system: rat middle cerebral artery occlusion and reperfusion model; test: Cerebral edema in rat middle cerebral artery occlusion and reperfusion model; assay type: in vivo, Wistar rats
Experimental: After eight weeks to nine weeks old Wistar rats (220 to 260 g) were subjected to inhalation anesthesia with halothane, the inhalation anesthesia with 1% halothane (anesthesia; nitrous oxide: oxygen=7:3) was continued while fixing them in a dorsal position and maintaining their body temperature at around 37° C. In an infusion administration group and a bolus+infusion administration group, a catheter was placed in the femora vein. The right common carotid artery, external carotid artery and internal carotid artery were exposed and the common carotid artery and external carotid artery were ligated in order to occlude the middle cerebral artery. From the common carotid artery, a No. 4 nylon suture (plug) was inserted to occlude the middle cerebral artery. Three hours after occlusion of the middle cerebral artery, the plug was taken out from the common carotid artery and perfusion of the middle cerebral artery was resumed, and then the administration was started as in Table 3. Decapitation and surgical removal of the brain were performed three hours after reperfusion. After separation of the right and left cerebral cortex, the wet weight was measured. After drying at 130° C. for 24 hours, the dry weight was determined. A percentage water content was calculated in accordance with the following equation: (wet weight (g)−dry weight (g))/wet weight (g)×100. The constitution and dose of each group are shown below in Table 3. It is to be noted that to the drug administered groups other than the control group, Edaravone was administered as a drug in accordance with Table 3.

[3] = system: human serum proteins; settings: cited from earlier work
[4] = system: monkey middle cerebral artery occlusion; test: Dose response test with monkey (middle cerebral artery occlusion, infarct); assay type: in vivo, croo monkey; settings: Edaravone administered groups (0.1-0.4 mg/kg loading + 0.5-2.0 mg/kg/hr maintenance i.v.), 28 hours after occlusion
Experimental: A croo monkey (3 years to 5 years old) was subjected to […], and then its body temperature was kept at around 37° C. The middle cerebral artery at around the branch of the left internal carotid artery was exposed, and the middle cerebral artery was occluded by electrocoagulation. Then, the administration was started as in Table 6. 28 hours after occlusion (just after administration), the whole brain was removed under deep anesthesia by excess pentobarbital administration, and coronary brain sections each having a thickness of 4 mm were cut out of the forehead. The brain sections were stained with 1 w/v % 2,3,5-triphenyltetrazolium chloride, and the infarct area was measured to calculate the infarct volume.
In the drug administered groups other than the solvent group, Edaravone was used as the drug and this was administered as in Table 6.

[5] = system: rat middle cerebral artery occlusion; test: Dose response test with rat (middle cerebral artery occlusion/reperfusion, infarct); assay type: in vivo, Crj:CD(SD) male rats
Experimental: Seven weeks to eight weeks old Crj:CD(SD) male rats (190 to 250 g) were subjected to anesthesia with isoflurane, and were fixed in a dorsal position with their body temperature kept at around 37° C. A catheter for drug administration was placed in the cervical vein. The right common carotid artery, external carotid artery and internal carotid artery were exposed and the common carotid artery and external carotid artery were ligated in order to occlude the middle cerebral artery. From the branch of the external carotid artery and the internal carotid artery, a silicone-coated No. 4 nylon suture (plug) was inserted to occlude the middle cerebral artery. Two hours after occlusion of the middle cerebral artery, the plug was taken out and perfusion of the middle cerebral artery was resumed, and then the administration was started as in Table 5. Decapitation and surgical removal of the brain were performed 24 hours after reperfusion. Five brain sections each having a thickness of 2 mm (from the bregma part, from 2 mm before and behind parts of the bregma, and from 4 mm before and behind parts of the bregma) were prepared. The brain sections were stained with 1 w/v % 2,3,5-triphenyltetrazolium chloride, and the infarct area was measured to calculate the infarct volume. […]

## CC1=NN(c2ccccc2)C(=O)C1 [Edaravone, 1-phenyl-3-methyl-2-pyrazolin-5-one]
[1]
  binding ratio with serum proteins: 85.8%
[2]; bolus group, 3 mg/kg i.v. immediately after reperfusion, brain removed 3 h after reperfusion
  increase in percentage water content of cortex: almost equal
[2]; bolus+infusion group, 0.2 mg/kg i.v. + 1 mg/kg/hr i.v. for 2.75 hours
  increase in percentage water content of cortex: lowest
[2]; infusion group, 1 mg/kg/hr i.v. for 3 hours after reperfusion
  increase in percentage water content of cortex: almost equal
[3]
  binding ratio with serum proteins: 91.9%
[4]
  infarct volume compared with control group: small
[5]; 0.1 mg/kg+0.5 mg/kg/hr i.v., P<0.05 vs physiological saline
  infarct area: significantly decreased
[5]; Edaravone administered groups (0.05-0.2 mg/kg loading + 0.25-1.0 mg/kg/hr maintenance i.v.), 24 hours after reperfusion
  infarct volume compared with control group: small

— patent US9259416B2, “Pyrazolone compounds useful for treatment of cerebrovascular disorders associated with ischemic stroke” (MITSUBISHI TANABE PHARMA CORPORATION, priority 2004, dated 2016)
